Values quoted from earlier work in patent US20100055181A1, “CONTROLLED RELEASE DOSAGE FORMS OF ZOLPIDEM” (LUPIN LIMITED, priority 2006, published 2010).

Settings: hypnotic action, oral, conventional forms

For `Cc1ccc(-c2nc3ccc(C)cn3c2CC(=O)N(C)C)cc1` [zolpidem], the duration of action is given as “up to 6 hours”.
